Assay results: PubChem BioAssay (NCI)
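These data come from cells grown in 96-well plates and exposed to compound for 48 hours at five concentrations. TGI: concentration producing complete growth inhibition.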

Legend:
Assay in all cases: growth of human tumour cells (NCI), 48 h
[1] = system: SN12C renal
[2] = system: K-562 leukemia
[3] = system: A498 renal
[4] = system: SNB-19 CNS
[5] = system: NCI-H23 lung
[6] = system: IGROV1 ovarian
[7] = system: HCT-15 colon
[8] = system: A549 NSCLC
[9] = system: TK-10 renal
[10] = system: OVCAR-5 ovarian
[11] = system: EKVX NSCLC
[12] = system: UACC-62 melanoma
[13] = system: HOP-92 NSCLC
[14] = system: 786-0 renal
[15] = system: KM12 colon
[16] = system: HCT-116 colon
[17] = system: NCI-H522 lung
[18] = system: NCI/ADR-RES ovarian
[19] = system: DU-145 prostate

SMILES	TGI [1]	TGI [2]	TGI [3]	TGI [4]	TGI [5]	TGI [6]	TGI [7]	TGI [8]	TGI [9]	TGI [10]	TGI [11]	TGI [12]	TGI [13]	TGI [14]	TGI [15]	TGI [16]	TGI [17]	TGI [18]	TGI [19]
CC1(C)COC(C23C4C5C2C2C3C4C52I)=N1 (stereo not given)	> 100 µM	> 100 µM	> 100 µM	> 100 µM	> 100 µM	> 100 µM	> 100 µM	> 100 µM	> 100 µM	> 100 µM	> 100 µM	> 100 µM	> 100 µM	> 100 µM					
O=S1(=O)OCCOS(=O)(=O)C1I	> 100 µM	> 100 µM	> 100 µM	> 100 µM	> 100 µM	> 100 µM		> 100 µM	> 100 µM		> 100 µM	> 100 µM	> 100 µM	> 100 µM	> 100 µM	> 100 µM	> 100 µM		
CCCN(CCCCC(NC(C)=O)C(=O)NCc1ccccc1)C(=O)N(C)N=O (stereo not given)	> 100 µM	> 100 µM	> 100 µM	> 100 µM	> 100 µM	> 100 µM	> 100 µM	> 100 µM	> 100 µM	> 100 µM	> 100 µM	> 100 µM	> 100 µM	> 100 µM	> 100 µM	> 100 µM	> 100 µM		
C/C(CC(=O)Nc1ccc(Cl)c(Cl)c1)=N/NC(=O)C[n+]1ccccc1	> 100 µM	> 100 µM	> 100 µM	> 100 µM	> 100 µM	> 100 µM	> 100 µM	> 100 µM	> 100 µM	> 100 µM	> 100 µM	> 100 µM	> 100 µM	> 100 µM	> 100 µM	> 100 µM	> 100 µM		
COc1ccc(N2C(=O)C3c4[nH]c5ccc(OC)cc5c4C4CCC(C(C)(C)C)CC4C3C2=O)cc1 (stereo not given)	> 100 µM	> 100 µM	49.3 µM	> 100 µM	80.8 µM	> 100 µM	> 100 µM	> 100 µM	> 100 µM	> 100 µM	92.3 µM	> 100 µM	36.4 µM	66.1 µM	> 100 µM	26.1 µM	89.3 µM		
CN(C)c1ccc(-c2cc(=O)c3cc4c(cc3[nH]2)OCO4)cc1	> 100 µM	> 100 µM	> 100 µM	> 100 µM	> 100 µM	> 100 µM	> 100 µM	> 100 µM	> 100 µM		> 100 µM	> 100 µM		> 100 µM		> 100 µM			
COc1cccc2c1CCc1ccccc1CC2=O	> 100 µM	> 100 µM	> 100 µM	> 100 µM	> 100 µM	> 100 µM	> 100 µM	> 100 µM	> 100 µM	> 100 µM	> 100 µM	> 100 µM	> 100 µM	> 100 µM	> 100 µM	> 100 µM	> 100 µM		
COC(=O)CCCN(C)c1n[nH]c(N)n1	> 100 µM	> 100 µM		> 100 µM	> 100 µM	> 100 µM	> 100 µM	> 100 µM	> 100 µM	> 100 µM	> 100 µM	> 100 µM		> 100 µM	> 100 µM	> 100 µM			
CSC1=C(C(=O)Nc2ccc(Cl)cc2)C(N)=NC1=O	> 100 µM	> 100 µM	> 100 µM	> 100 µM	> 100 µM	> 100 µM	> 100 µM	> 100 µM	> 100 µM	> 100 µM	> 100 µM	> 100 µM		> 100 µM	> 100 µM	> 100 µM	> 100 µM	> 100 µM	> 100 µM
COc1ccc(C[C@@H]2Cc3cc(OC)c(OC)cc3CN2C)cc1	> 100 µM	> 100 µM	> 100 µM	> 100 µM	> 100 µM		> 100 µM	> 100 µM	> 100 µM	> 100 µM	> 100 µM			> 100 µM	> 100 µM		> 100 µM		
CC(=O)O[C@H]1C(=O)[C@@]2(C)[C@H]([C@H](OC(=O)c3ccccc3)[C@]3(O)C[C@H](OC(=O)[C@H](OC(=O)OCCC(O)CO)[C@@H](NC(=O)c4ccccc4)c4ccccc4)C(C)=C1C3(C)C)[C@]1(OC(C)=O)CO[C@@H]1C[C@@H]2O (stereo not given in full)	33.6 µM	49.8 µM	28.9 µM	> 100 µM	> 37 µM	34.7 µM	> 35.4 µM	> 100 µM	> 44.6 µM	43.5 µM	> 100 µM	20.1 µM	61.6 µM	33 µM	13.1 µM	11.3 µM	< 0.01 µM	> 43.4 µM	
CCOC(=O)/C(=C\c1ccc(O)c(OC)c1)C(=O)c1ccccc1	33.5 µM	> 31.8 µM	39 µM	> 45.8 µM	23.7 µM	39 µM	24.8 µM	51.3 µM	> 57.5 µM	> 59.3 µM	> 53.3 µM	28.6 µM	70.7 µM	37.6 µM	34.3 µM	28.7 µM	21.9 µM		61.4 µM
Cc1nc2c(n1CCO)C(=O)c1ccccc1C2=O	> 100 µM	58.3 µM		> 100 µM	30.8 µM	84 µM	> 100 µM	> 100 µM	> 100 µM		> 100 µM	30.9 µM		> 100 µM	> 100 µM	43 µM	27.6 µM		
O=C(O)/C=C/n1c2ccccc2c(=O)c2ccccc21	> 100 µM	> 100 µM	> 100 µM	> 100 µM	> 100 µM	> 100 µM	> 100 µM	> 100 µM		> 100 µM	> 100 µM	> 100 µM		> 100 µM	> 100 µM	> 100 µM	> 100 µM		
